In patent publication US5869492A, “Condensed thiazole derivatives, having 5-HT receptor affinity” (priority 1995, dated 1999):
pKi: −log10 of the molar value. Counter-ions that a name gives are not always drawn. Like-named read-outs stand apart in the source and are kept apart here.

Legend:
[1] = target: T1, 5-hydroxytryptamine (5-HT) reuptake sites (Rattus norvegicus, UniProt P31652); assay: [3H]5-HT uptake into rat frontal cortical synaptosomes; type: biochemical
T1 construct: Frontal cortical tissue from the brains of male Sprague-Dawley rats; from tissue; host or cells: crude frontal cortical synaptosomes of male Sprague-Dawley rats (Charles River)
Procedure: Frontal cortical tissue from the brains of male Sprague-Dawley rats (Charles River; weight range 150-250 g) was homogenised in ice-cold 0.32M sucrose (1:10 w/v) using a motor driven teflon pestle (difference in diameter between mortar and pestle 0.5 mm). Nuclei and cell debris were removed by centrifugation at 1,500 g at 4° C. for 10 minutes. The pellet (P1) was discarded and the supernatant centrifuged at 30,000 g at 4° C. for 10 minutes. The crude synaptosomal pellet (P2) was resuspended in Krebs-Henseleit buffer (equivalent to 8.3 mg wet weight of tissue/ml).
Crude synaptosomes were incubated in a shaking water bath at 37° C. for 15 minutes. Aliquots (150 μl; equivalent to 1.25 mg wet weight of tissue/tube) were then added to tubes containing 275 μl of Krebs-Henseleit buffer and 50 μl of Krebs-Henseleit buffer (total uptake) or 50 μl of test compound (at a single concentration of 10^-6 M or at 10 concentrations ranging from 10^-11 -10^-3 M) or 50 μl of zimeldine (10^-5 M; non-specific uptake). Uptake was initiated by the addition of 25 μl of freshly prepared [^3 H]5-HT (2 nM), followed by vortexing, and was continued for 5 minutes at 37° C. in the shaking water bath. Uptake was terminated by filtration under vacuum through Skatron 11734 filters using a Skatron cell harvester. Filters were then washed with 8 ml ice-cold saline. The scored filter paper discs were punched into vials, scintillation fluid added and radioactivity determined by liquid scintillation counting.
For both the 5-HT uptake and noradrenaline uptake tests, the percentage inhibition of specific uptake of the tritiated ligand was calculated for the single concentration (10^-6 M) of test compound. Inhibition curves were then produced for those compounds which inhibited ≥50% of specific uptake of the tritiated ligand at 10 ^-6 M using a range of concentrations of test compound. The concentration which gave 50% inhibition of specific uptake (IC50) was obtained from the curve. The inhibition constant (Ki) was then calculated using the formula [formula] in which [ligand] is the concentration of tritiated ligand used and Km is the affinity of the uptake site for the ligand.

5-HT1A receptors = target: T2, 5-HT1A receptors (Rattus norvegicus, UniProt P19327); assay: [3H]8-OH-DPAT binding to 5-HT1A receptors in rat hippocampal membranes; conditions: for pKi: [3H]8-OH-DPAT 2 nM, rat hippocampal membranes, mean of three determinations unless marked
T2 construct: Hippocampal tissue from the brains of male Sprague-Dawley rats; from tissue; host or cells: hippocampal membranes of male Sprague-Dawley rats (Charles River)
T2 sequence (P19327 1-422): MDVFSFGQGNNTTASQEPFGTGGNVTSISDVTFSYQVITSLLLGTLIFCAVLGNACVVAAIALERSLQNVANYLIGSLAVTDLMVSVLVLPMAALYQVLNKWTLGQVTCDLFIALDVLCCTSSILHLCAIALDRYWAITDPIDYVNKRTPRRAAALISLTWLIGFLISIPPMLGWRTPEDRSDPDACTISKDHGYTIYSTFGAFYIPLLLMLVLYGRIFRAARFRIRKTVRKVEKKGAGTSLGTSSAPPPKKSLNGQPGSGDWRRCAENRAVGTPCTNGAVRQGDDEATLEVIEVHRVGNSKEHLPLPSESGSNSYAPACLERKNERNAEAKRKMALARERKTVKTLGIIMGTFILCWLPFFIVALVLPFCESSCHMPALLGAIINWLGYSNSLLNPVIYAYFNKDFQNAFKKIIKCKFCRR
Procedure: Hippocampal tissue from the brains of male Sprague-Dawley rats (Charles River; weight range 150-250 g) was homogenised in ice-cold 50 mM Tris-HCl buffer (pH 7.7 when measured at 25° C., 1:40 w/v) and centrifuged at 30,000 g at 4° C. for 10 minutes. The pellet was rehomogenised in the same buffer, incubated at 37° C. for 10 minutes and centrifuged at 30,000 g at 4° C. for 10 minutes. The final pellet was resuspended in 50 mM Tris-HCI buffer (pH 7.7) containing 4 mM CaCl2, 0.1% L-ascorbic acid and 10 μM pargyline hydrochloride (equivalent to 6.25 mg wet weight of tissue/ml) and used immediately in the binding assay.
Aliquots (400 μl; equivalent to 2.5 mg wet weight of tissue/tube) of this membrane preparation were added to tubes containing [^3 H]8-hydroxy-2-(dipropylamino)tetralin ([^3 H]8-OH-DPAT; 50 μl; 2 nM) and distilled water (50 μl; total binding) or 5-HT (50 μl; 10 μM; non-specific binding) or test compound (50 μl; at a single concentration of 10^-6 M or at 10 concentrations ranging from 10^-11 -10^-3 M) and incubated at 25° C. for 30 minutes. The incubation was terminated by rapid filtration under vacuum through Skatron 11734 filters using a Skatron Cell Harvester. Filters were washed with ice-cold 50 mM Tris-HCl buffer, pH 7.7 (at 25° C., wash setting 9,9,0) and dried. The scored filter paper discs were punched out into vials, scintillation fluid added and radioactivity determined by liquid scintillation counting.
The percentage displacement of specific binding of the tritiated ligand was calculated for the single concentration (10^-6 M) of test compound. Displacement curves were then produced for those compounds which displaced ≥50% of specific binding of the tritiated ligand at 10^-6 M using a range of concentrations of the compound. The concentration which gave 50% inhibition of specific binding (IC50) was obtained from the curve. The inhibition coefficient Ki was then calculated using the formula [formula] in which [ligand] is the concentration of the tritiated ligand used and KD is the equilibrium dissociation constant for the ligand.

[2] = target: T3, noradrenaline reuptake sites (Rattus norvegicus, UniProt Q63380); assay: [3H]noradrenaline uptake into rat frontal cortical synaptosomes; type: biochemical; conditions: [3H]noradrenaline 10 nM, mean of three determinations unless marked (** one), read-out: NA uptake Ki
T3 construct: Frontal cortical tissue from the brains of male Sprague-Dawley rats; from tissue; host or cells: crude frontal cortical synaptosomes of male Sprague-Dawley rats (Charles River)
Procedure: Frontal cortical tissue from the brains of male Sprague-Dawley rats (Charles River; weight range 150-250 g) was homogenised in ice-cold 0.32M sucrose (1:10 w/v) using a motor driven teflon pestle (difference in diameter between mortar and pestle 0.5 mm). Nuclei and cell debris were removed by centrifugation at 1,500 g at 4° C. for 10 minutes. The pellet (P1) was discarded and the supernatant centrifuged at 30,000 g at 4° C. for 10 minutes. The crude synaptosomal pellet (P2) was resuspended in Krebs-Physiological buffer (equivalent to 16.7 mg wet weight of tissue/ml).
Crude synaptosomes were incubated in a shaking water bath at 37° C. for 15 minutes. Aliquots (150 μl; equivalent to 2.5 mg wet weight of tissue/tube) were then added to tubes containing 275 μl of Krebs-Physiological buffer and 50 μl of Krebs-Physiological buffer (total uptake) or 50 μl of test compound (at a single concentration of 10^-6 M or 10 concentrations ranging from 10^-11 -10^-3 M) or 50 μl of desipramine (10^-5 M; non-specific uptake). Uptake was initiated by the addition of 25 μl of freshly prepared [^3 H]noradrenaline (10 nM), followed by vortexing and was continued for 5 minutes at 37° C. in the shaking water bath. Uptake was terminated by filtration under vacuum through Whatman GF/B filters using a Brandell cell harvester. Filters were then washed with 8 ml ice-cold saline. The scored filter paper discs were placed into vials, scintillation fluid added and radioactivity determined by liquid scintillation counting.

[3] = [3H]5-HT 2 nM, rat frontal cortical synaptosomes, mean of three determinations unless marked (* two), read-out: 5-HT uptake Ki

T1 sequence (P31652 whole entry): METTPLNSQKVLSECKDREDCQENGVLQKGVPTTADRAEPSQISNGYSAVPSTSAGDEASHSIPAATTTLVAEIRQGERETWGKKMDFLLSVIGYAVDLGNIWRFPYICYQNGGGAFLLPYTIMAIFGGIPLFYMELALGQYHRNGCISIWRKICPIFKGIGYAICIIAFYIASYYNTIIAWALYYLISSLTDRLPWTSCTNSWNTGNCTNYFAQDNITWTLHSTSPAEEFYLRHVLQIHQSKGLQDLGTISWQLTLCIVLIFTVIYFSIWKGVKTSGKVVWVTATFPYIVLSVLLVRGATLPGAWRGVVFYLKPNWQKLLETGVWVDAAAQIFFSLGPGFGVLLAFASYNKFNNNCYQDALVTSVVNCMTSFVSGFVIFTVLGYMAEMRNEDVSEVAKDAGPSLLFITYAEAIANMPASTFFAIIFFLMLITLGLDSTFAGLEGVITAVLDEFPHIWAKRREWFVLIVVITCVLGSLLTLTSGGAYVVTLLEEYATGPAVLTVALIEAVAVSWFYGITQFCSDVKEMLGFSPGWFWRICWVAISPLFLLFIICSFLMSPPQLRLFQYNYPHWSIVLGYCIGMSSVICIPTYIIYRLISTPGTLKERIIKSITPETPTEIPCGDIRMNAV
T3 sequence (Q63380 1-617): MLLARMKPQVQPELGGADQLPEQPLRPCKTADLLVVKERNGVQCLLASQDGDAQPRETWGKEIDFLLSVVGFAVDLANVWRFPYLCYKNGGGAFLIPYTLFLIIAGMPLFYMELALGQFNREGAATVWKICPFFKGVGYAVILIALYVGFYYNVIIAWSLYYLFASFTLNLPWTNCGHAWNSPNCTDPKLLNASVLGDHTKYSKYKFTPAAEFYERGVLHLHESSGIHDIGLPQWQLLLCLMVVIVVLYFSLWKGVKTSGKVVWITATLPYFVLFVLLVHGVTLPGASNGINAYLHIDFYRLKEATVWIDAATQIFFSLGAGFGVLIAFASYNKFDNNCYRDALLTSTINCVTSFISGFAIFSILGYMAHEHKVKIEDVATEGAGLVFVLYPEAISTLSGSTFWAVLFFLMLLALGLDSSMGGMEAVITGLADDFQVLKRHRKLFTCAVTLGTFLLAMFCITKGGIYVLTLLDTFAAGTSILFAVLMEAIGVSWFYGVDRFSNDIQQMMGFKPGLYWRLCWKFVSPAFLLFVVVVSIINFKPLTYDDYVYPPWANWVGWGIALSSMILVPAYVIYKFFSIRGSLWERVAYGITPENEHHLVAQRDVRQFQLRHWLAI

## C1=C(c2csc3ccccc23)N2CCN=C2S1 [Example 1, 3-(benzo[b]thiophen-3-yl)-5,6-dihydroimidazo[2,1-b]thiazole monohydrobromide dihydrate]
[1]
  pKi: 7.90
5-HT1A receptors
  pKi: 7.09
[2]
  pKi: 8.55

## C1=C(c2csc3ccccc23)N2CCCN=C2S1 [Example 2, 3-(benzo[b]thiophen-3-yl)-6,7-dihydro-5H-thiazolo[3,2-2a]pyrimidine]
[1]; [3]
  pKi: 6.52
5-HT1A receptors
  pKi: 6.47
[2]
  pKi: 7.40

## C1=C(c2coc3ccccc23)N2CCN=C2S1 [Example 3, 3-(benzo[b]furan-3-yl)-5,6-dihydroimidazo[2,1-b]thiazole monohydrobromide monohydrate]
[1]
  pKi: 7.08
5-HT1A receptors
  pKi: 6.93
[2]
  pKi: 7.39

## C1=C(c2coc3ccccc23)N2CCCN=C2S1 [Example 4, 3-(benzo[b]furan-3-yl)-6,7-dihydro-5H-thiazolo[3,2-a]pyrimidine]
[1]; [3]
  pKi: 6.06
5-HT1A receptors
  pKi: 6.49
[2]
  pKi: 6.94

## Clc1ccc2scc(C3=CSC4=NCCN34)c2c1 [Example 5, 3-(5-chlorobenzo[b]thiophen-3-yl)-5,6-dihydroimidazo[2,1-b]thiazole monohydrobromide]
[1]
  pKi: 8.06
5-HT1A receptors
  pKi: 7.39
[2]
  pKi: 7.89

## COc1ccc2scc(C3=CSC4=NCCN34)c2c1 [Example 6, 3-(5-methoxybenzo[b]thiophen-3-yl)-5,6-dihydroimidazo[2,1-b]thiazole monohydrobromide]
[1]
  pKi: 7.66
5-HT1A receptors
  pKi: 7.43
[2]
  pKi: 7.29

## Fc1ccc2scc(C3=CSC4=NCCN34)c2c1 [Example 7, 3-(5-fluorobenzo[b]thiophen-3-yl)-5,6-dihydroimidazo[2,1-b]thiazole monohydrobromide]
[1]
  pKi: 7.44
5-HT1A receptors; single concentration 10^-6 M, [3H]8-OH-DPAT, * mean of two determinations, read-out: 5-HT1A % displacement at 10^-6 M
  inhibition at 1 µM: 66%
[2]
  pKi: 8.27

## N#Cc1ccc2scc(C3=CSC4=NCCN34)c2c1 [Example 8, 3-(5,6-dihydroimidazo[2,1-b]thiazol-3-yl)benzo[b]thiophen-5-carbonitrile monohydrobromide]
[1]
  pKi: 6.28
5-HT1A receptors
  pKi: 6.33
